# Measured values taken from patent publication EP0103895A2, “Novel hydroxylamine derivatives, production and use thereof” (MEIJI SEIKA KABUSHIKI KAISHA, priority 1982, dated 1984).
# “And” between values parts separate entries of the source, which are not always exact repeats. Identical values can stand only once. Like-named read-outs stand apart in the source and are kept apart here.
# How the values were obtained:
# [1] = tested on: swine whipworm (Trichuris suis); experiment: Test of anthelmintic effect in naturally infected pigs, E.P.G. on 7th day: swine whipworm (Test Examples A9, B9, C9, D9); format: in vivo
# Description: (§1) Six pigs infected with swine roundworm and swine whipworm (naturally infected pigs) were employed in groups each of two pigs.
# (§2) As a control, only gelatin capsules were administered orally to the two pigs.
# (§3) Before administration and on the 7th day after. administration, fecal matter testing was conducted to calculate the E.P.G., and the anthelmintic effect was judged by the changing of the E.P.G. to negative'.
# (§4) 50 mg of each compound was placed in a gelatin capsule per 1 Kg of body weight and administered orally to each of the two pigs. As control, only gelatin capsules were administered orally to two pigs.
# (§5) 30 mg of each compound was placed in a gelatin capsule per 1 Kg of body weight and administered orally to each of the two pigs. As control, only gelatin capsules were administered orally to two pigs.
# [2] = tested on: fowl roundworm (Ascaridia galli); experiment: Anthelmintic test in chickens artificially infected with fowl roundworm, single oral dose in gelatin capsule, worm bodies counted within 48 hours (Test Examples A1, B1, C1, D1); format: in vivo; settings: Ascaridia galli, po, 48 h, read-out: Anthelmintic effect after 48 hours
# How it was run: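 Groups of three chickens with confirmed Ascaridia galli infection given a single oral dose in gelatin capsule (10 and 20 mg/kg in A1 and B1; 30 and 50 mg/kg in C1; 15 and 30 mg/kg in D1). Worms expelled over 48 h and those remaining in the gut at necropsy counted to give anthelmintic percentage.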
# [3] = tested on: fowl roundworm (As. galli); experiment: Anthelmintic test in chickens artificially infected with fowl roundworm, compound added to feed, E.P.G. and worm count up to 21st day (Test Examples A2, B2, C2, D2); format: in vivo, Ascaridia galli
# [4] = tested on: Liver fluke; Fasciola hepatica (F. hepatica); experiment: Test of anthelmintic effect against rat infected experimentally with liver fluke (Test Examples A11, B11, C11, D11); format: in vivo; settings: for anthelmintic effect: rats, five administrations in a dose of 50 mg/Kg each
# [5] = tested on: swine roundworm (Ascaris suum); experiment: Test of anthelmintic effect in naturally infected pigs, E.P.G. on 7th day: swine roundworm (Test Examples A9, B9, C9, D9); format: in vivo
# Description: as §1, §2, §3, §4, §5
# [6] = tested on: Diphyllobothrium erinacei; experiment: Test of anthelmintic effect against Diphyllobothrium erinacei (tapeworm) in experimentally infected cats (Test Examples A5, B5, C5, D5)
# [7] = tested on: canine whipworm (Trichuris vulpis); experiment: Anthelmintic test in naturally infected dogs with mixed infections, E.P.G. on 7th day: canine whipworm (Test Examples A3, B3, C3, D3); format: in vivo; settings: for Change of E.P.G. 7th day: one administration; for anthelmintic effect: dogs with mixed infections (Trichuris vulpis, Ancylostoma caninum, Toxocara canis; statement covers all three)
# Description: (§6) Three dogs with mixed infections by canine whipworm (Trichuris vulpis), canine hookworm (Ancylostoma caninum) and canine roundworm (Toxocara canis) (naturally infected dogs) were employed in a group of two and a group of one.
# (§7) The compound provided for the test was Compound No.Al, and 20 mg/Kg thereof was placed in a gelatin capsule per 1 Kg of body weight, and administered orally to the two dogs. As control, only a gelatin capsule was administered orally to the one dog.
# (§8) Before administration and on the 7th day after administration, fecal matter testing was conducted to calculate the E.P.G., and the anthelmintic effect was judged by the changing of the E.P.G. to negative.
# (§9) As control, only gelatin capsules were administered orally to the one dog.
# (§10) The same method as in Test Example A3, but the compound provided for the test was Compound No. Cl. 30 mg/Kg of this compound was placed in a gelatin capsule per 1 Kg of body weight and administered orally to the two dogs. As control, only gelatin capsules were administered orally to the one dog.
# [8] = tested on: canine roundworm (Toxocara canis); experiment: Anthelmintic test in naturally infected dogs with mixed infections, E.P.G. on 7th day: canine roundworm (Test Examples A3, B3, C3, D3); format: in vivo; settings: dog; for Change of E.P.G. 7th day: one administration
# Description: as §6, §7, §8, §9, §10
# [9] = tested on: canine hookworm (Ancylostoma caninum); experiment: Anthelmintic test in naturally infected dogs with mixed infections, E.P.G. on 7th day: canine hookworm (Test Examples A3, B3, C3, D3); format: in vivo; settings: dog; for Change of E.P.G. 7th day: one administration
# Description: as §6, §7, §8, §9, §10
# [10] = tested on: stomach worm (Haemonchus controtus); experiment: Anthelmintic test against cow stomach worm in naturally infected cows, E.P.G. on 7th day (Test Examples A6, B6, C6, D6); format: in vivo; settings: for Change of E.P.G. 7th day / Change of E.P.G. Before administration: cow, Haemonchus controtus; for Change of E.P.G. 7th day: one administration; for anthelmintic effect: cows
# Description: Three cows infected with stomach worm (naturally infected cows) were employed by grouping them into a group of two and a group of one.
# (§11) As control, only gelatin capsules were administered orally to the one cow.
# as §8, §11, §11
# [11] = tested on: canine filaria; Dirofilaria immitis; experiment: Test of anthelmintic effect against canine filaria in naturally infected dogs, subcutaneous injection, microfilaria in blood and adult filaria at autopsy (Test Examples A10, B10, C10, D10); format: in vivo; settings: for inhibition in vivo at 30 mg/kg: Dirofilaria immitis, sc, 240 h
# [12] = tested on: Trichostrongylidae (Trichostrongylus colubriformis); experiment: Anthelmintic test against sheep Trichostrongylidae in naturally infected sheep, E.P.G. on 7th day (Test Examples A7, B7, C7, D7); format: in vivo
# Description: Two sheep infected with Trichostrongylidae (naturally infected sheep) were employed.
# The compound provided for the test was Compound No. Al, 15 mg of which was placed in a gelatin capsule per 1 Kg of body weight and administered orally to one of the sheep. As a control, only gelatin capsules were administered orally to the other sheep.
# as §8
# As control, only gelatin capsules were administered orally to the other sheep.
# As control, only gelatin capsule was administered orally to the other sheep.
# [13] = chicken, 30 mg/Kg oral in gelatin capsule, chickens No.1-3
# [14] = 30 mg/Kg oral in gelatin capsule
# [15] = before 30 mg/Kg oral (baseline)
# [16] = Ascaridia galli, feed or water, 504 h, chicken, 25 ppm in feed, read-out: Anthelmintic effect
# [17] = Ascaridia galli, feed or water, 504 h, chicken, 50 ppm in feed, read-out: Anthelmintic effect
compound,measurement,setting,value
"C=CCN(OCCCC)C(=O)c1ccccc1 [Compound B19, N-allyl-N-benzoyl-0-butylhydroxylamine]",Change of E.P.G. 7th day,"[1]; pigs, 50 mg/Kg orally once, one value per pig",0 E.P.G.
same,inhibition in vivo at 30 mg/kg,"[2]; chickens, 30 mg/Kg orally in gelatin capsule, one value per chicken (No.1-3)",100%
same,inhibition in vivo at 50 mg/kg,"[2]; chickens, 50 mg/Kg orally in gelatin capsule, one value per chicken (No.1-3)",100%
same,inhibition in vivo at 20 ppm,"[3]; Ascaridia galli, po, 504 h, chickens, 20 ppm added to feed, worm count on 21st day, one value per chicken, read-out: Anthelmintic effect",80 to 90%
same,inhibition in vivo at 50 ppm,"[3]; Ascaridia galli, po, 504 h, chickens, 50 ppm added to feed, worm count on 21st day, one value per chicken, read-out: Anthelmintic effect",100%
same,Condition of fluke body,"[4]; rat, 50 mg/Kg x 5",dead
same,Presence or absence of fluke egg in fecal matter On 21st day after the last administration,"[4]; rat, 50 mg/Kg x 5",-
same,anthelmintic effect,[4],marked antihelmintic effect
same,anthelmintic effect,"[5]; pigs infected with swine roundworm and swine whipworm (statement covers both), one administration of 50 mg/Kg",marked anthelmintic effect
same,Change of E.P.G. 7th day,"[5]; pigs, 50 mg/Kg orally once, Ascaris suum, one value per pig",0 E.P.G.
same,Number of worm bodies remaining in enteron,"[6]; cats infected with 5 plerocercoids, 50 mg/Kg x 5 times orally, autopsy ten days after administration, one value per cat",0
same,Worm egg detection on 10th day after administration,"[6]; cats, 50 mg/Kg x 5 orally, one value per cat (Table B7)",-
same,anthelmintic effect,"[6]; cats, 5 continuous administrations of 50 mg/Kg",marked anthelmintic effects
"C=CCON(CC=C)C(C)=O [Compound C1, N,O-diallyl-N-acetylhydroxyl- amine]",inhibition in vivo at 30 mg/kg,[2]; [13],100%
same,inhibition in vivo at 50 mg/kg,"[2]; chicken, 50 mg/Kg oral in gelatin capsule, chickens No.1-3",100%
same,Change of E.P.G. 7th day,"[7]; dog, Trichuris vulpis, 30 mg/Kg oral in gelatin capsule",0
same,Change of E.P.G. Before administration,"[7]; dog, Trichuris vulpis, before 30 mg/Kg oral (baseline)","2,300 and 4,200"
same,anthelmintic effect,[7]; one administration of 30 mg/Kg,marked anthelmintic effect
same,Change of E.P.G. 7th day,[8]; [14],0
same,Change of E.P.G. Before administration,[8]; [15],"3,300 and 3,100"
same,inhibition in vivo at 25 ppm,[3]; [16],100%
same,inhibition in vivo at 50 ppm,[3]; [17],100%
same,Change of E.P.G. 21st day,"[3]; chicken, 25 ppm in feed",0
same,Change of E.P.G. 21st day,"[3]; chicken, 50 ppm in feed",0
same,Change of E.P.G. 7th day,[9]; [14],0
same,Change of E.P.G. Before administration,[9]; [15],"4,500 and 6,600"
same,Change of E.P.G. 7th day,[10]; 20 mg/Kg oral in gelatin capsule,0
same,Change of E.P.G. Before administration,[10]; before 20 mg/Kg oral (baseline),"2,200 and 1,400"
same,anthelmintic effect,[10]; one administration of 20 mg/Kg,marked anthelmintic effect
same,inhibition in vivo at 30 mg/kg,"[11]; dog, 30 mg/Kg x 3, subcutaneous injection, read-out: Effect on adult filaria: Percent of worms killed",86%
same,inhibition in vivo at 30 mg/kg,"[11]; dogs, administration of 30 mg/Kg repeated three times, given as about 50% or more, read-out: anthelmintic effect against adult filaria",≥ 50%
same,Number of microfilaria/20 µl On 10th day after the last administration,"[11]; dog, 30 mg/Kg x 3, subcutaneous injection, suspension in 1% Tween 80",0 /20 µl
same,Effect on adult filaria: Number of worms killed/ Total parasite,"[11]; dog, 30 mg/Kg x 3, subcutaneous injection, 30 mg/kg",13/15 and 16/21
same,anthelmintic effect against microfilaria (mf),"[11]; dogs, administration of 30 mg/Kg repeated three times",marked anthelmintic effect
"C#CCNOCC=C.Cl [Compound D14, N-propargyl-O-allylhydroxylamine hydrochloride]",Change of E.P.G. 7th day,"[7]; dog, Trichuris vulpis, 20 mg/Kg",0
same,anthelmintic effect,[7]; one administration of 20 mg/Kg,marked anthelmintic effect
same,Change of E.P.G. 7th day,[8]; 20 mg/Kg,0
same,inhibition in vivo at 25 ppm,[3]; [16],80 to 90%
same,inhibition in vivo at 50 ppm,[3]; [17],100%
same,Change of E.P.G. 7th day,[9]; 20 mg/Kg,0
same,Change of E.P.G. Before administration,"[9]; before 20 mg/Kg (baseline), hydrochloride","3,300 and 6,800"
same,Condition of fluke bodies,"[4]; rat, 50 mg/Kg x 5",dead
same,Presence or absence of fluke egg in fecal matter On 21st day after the last administration,"[4]; rat, 50 mg/Kg x 5",-
same,anthelmintic effect,[4],marked anthelmintic effect
"C=CCNOCC.Cl [Compound D1, N-allyl-O-ethylhydroxylamine hydrochloride]",Change of E.P.G. 7th day,"[1]; pig, 20 mg/Kg, one administration",0
same,Change of E.P.G. Before administration,"[1]; pig, before 20 mg/Kg (baseline), hydrochloride","6,600 and 4,200"
same,inhibition in vivo at 15 mg/kg,"[2]; chicken, 15 mg/Kg oral in gelatin capsule, chickens No.1-3",80 to 90%
same,inhibition in vivo at 30 mg/kg,[2]; [13],100%
same,inhibition in vivo at 25 ppm,[3]; [16],80 to 90%
same,inhibition in vivo at 50 ppm,[3]; [17],100%
same,Change of E.P.G. 7th day,[10]; 15 mg/Kg,0
same,Change of E.P.G. Before administration,"[10]; before 15 mg/Kg (baseline), hydrochloride","3,700 and 5,400"
same,anthelmintic effect,[10]; one administration of 15 mg/Kg,marked anthelmintic effect
same,Change of E.P.G. 7th day,"[5]; pig, Ascaris suum, 20 mg/Kg, one administration",0
same,Change of E.P.G. Before administration,"[5]; pig, Ascaris suum, before 20 mg/Kg (baseline), hydrochloride","2,700 and 3,100"
same,Change of E.P.G. 7th day,"[12]; Trichostrongylus colubriformis, 15 mg/Kg, one administration",0
same,Change of E.P.G. Before administration,"[12]; Trichostrongylus colubriformis, before 15 mg/Kg (baseline)","2,900"
same,anthelmintic effect,[12]; one administration of 15 mg/Kg,marked anthelmintic effect
